Test results published in patent publication US9453028B2, “Protein kinase C inhibitors and uses thereof” (Rigel Pharmaceuticals, Inc., priority 2009, dated 2016).

Legend:
Human primary T cell = assay: IL-2 ELISA, human primary T cell, anti-CD3+CD28+ whole cell assay; format: cell-based; settings: IL-2 by ELISA, human primary T cells stimulated with anti-CD3+CD28
Description: 2. IL-2 ELISA, Human Primary T Cell, Anti-CD3+CD28+ Assays
Human primary T cells were prepared as follows. Whole blood was obtained from a healthy volunteer, mixed 1:1 with PBS, layered on to Ficoll Hypaque (Amersham Pharmacia Biotech, Piscataway, N.J., Catalog #17-1440-03) in 2:1 blood/PBS:ficoll ratio and centrifuged for 30 minutes at 4° C. at 1750 rpm. The cells at the serum:ficoll interface were recovered and washed twice with 5 volumes of PBS. These freshly isolated human peripheral blood mononuclear cells were cultured in Yssel's medium containing 40 U/mL IL2 in a flask pre-coated with 1 μg/mL αCD3 and 5 μg/mL αCD28 (Anti-Human CD3, BD Pharmingen Catalog #555336, Anti-Human CD28, Beckman Coulter Catalog #1M1376). The cells were stimulated for 3-4 days, then transferred to a fresh flask and maintained in RPMI (RPMI-1640 with L-Glutamine; Mediatech, Inc., Herndon Va., cat. #10-040-CM) with 10% FBS and 40 U/mL IL-2. The primary T-cells were then washed twice with PBS to remove the IL-2.
Human primary T cells (100,000 cells per well) were pre-incubated with or without test compound in Yssel's medium for 1 hr at 37° C. Cells were then stimulated by transferring them to round-bottom 96-well plates pre-coated with 1 μg/ml αCD3 and 5 μg/ml αCD28. For counter assay, cells were instead stimulated by adding 8× stock solutions of PMA and ionomycin in Yssels (for final concentrations of 0.5 ng/ml PMA and 0.1 μM ionomycin, both from Calbiochem). Cells were incubated at 37° C. for 24 hours before 100 μL supernatants were harvested for quantification of IL-2 by ELISA using Human IL-2 Duoset ELISA Kit from R and D Systems, Cat. # DY202E.
(§1) Several subject compounds were tested according to procedures in the “Characterization of Functional Properties” section. PKC kinase activity was measured using the procedure Section A.1 (Protein Kinase C assay) with the appropriate isoform. The whole cell assay was run according to the procedure in Section A.2 (IL-2 ELISA, Human primary T cell, anti-CD3+CD28+ Assays). […] Blank entries indicate that the IC50 was not determined.

PKC-alpha = biological target: T1, PKC-alpha (Homo sapiens, UniProt P17252); assay: Protein Kinase C assay (fluorescence polarization), PKC-alpha; format: biochemical
T1 construct: purchased Oxford Biomedical Research
Description: (§2) The inhibition of PKC activity was measured by monitoring the production of phosphorylated peptide by fluorescence polarization at different concentrations of the inhibitor. Reactions were carried out in 96-well plate format with a total volume of 20 μL containing 20 mM HEPES, pH 7.4, 5 mM MgCl2, 0.2 mM CaCl2, 1 mM DTT, 0.02% Brij-35, 0.1 mg/mL phosphatidylserine, 0.02 mg/mL dioleoyl-sn-glycerol and 5 μM each of ATP and the peptide substrate. Compounds were first diluted serially in DMSO and then transferred to a solution containing the above concentrations of HEPES, MgCl2, CaCl2, DTT, and Brij-35 to yield 5× compound solutions in 2% DMSO, which was then added to the reaction solution. Reactions were initiated by the addition of PKC at a typical concentration as described in the table below, and then allowed to incubate at room temperature for 20 minutes. At the end of this time, a combination of quench (EDTA) and detection (peptide tracer and antibody) reagents was added using the protocol of Invitrogen P2748 (Carlsbad, Calif.), a Protein Kinase C Fluorescence polarization Assay Kit. After a 30 minute period of incubation, the amount of phosphorylated peptide generated was measured by fluorescence polarization (Ex=485 nm, Em=535 nm) using a Tecan Polarian instrument (Switzerland).
Human recombinant PKC α is obtained from Oxford Biomedical Research and is used under the assay conditions as described under Section A.1 above.
as §1

PKC-beta = biological target: T2, PKC-beta (Homo sapiens, UniProt P05771); assay: Protein Kinase C assay (fluorescence polarization), PKC-beta; format: biochemical
T2 construct: purchased Oxford Biomedical Research
Description: as §2
Human recombinant PKC β1 is obtained from Oxford Biomedical Research and is used under the assay conditions as described under Section A.1 above.
as §1

PKC-delta = biological target: T3, PKC-delta (Homo sapiens, UniProt Q05655); assay: Protein Kinase C assay (fluorescence polarization), PKC-delta; format: biochemical
T3 construct: purchased Oxford Biomedical Research
Description: as §2
Human recombinant PKC δ is obtained from Oxford Biomedical Research and is used under the assay conditions as described under Section A.1 above.
as §1

PKC-epsilon = biological target: T4, PKC-epsilon (Homo sapiens, UniProt Q02156); assay: Protein Kinase C assay (fluorescence polarization), PKC-epsilon; format: biochemical
T4 construct: purchased Upstate Biotechnologies, Temecula, CA 14-518
T4 sequence (Q02156 1-737): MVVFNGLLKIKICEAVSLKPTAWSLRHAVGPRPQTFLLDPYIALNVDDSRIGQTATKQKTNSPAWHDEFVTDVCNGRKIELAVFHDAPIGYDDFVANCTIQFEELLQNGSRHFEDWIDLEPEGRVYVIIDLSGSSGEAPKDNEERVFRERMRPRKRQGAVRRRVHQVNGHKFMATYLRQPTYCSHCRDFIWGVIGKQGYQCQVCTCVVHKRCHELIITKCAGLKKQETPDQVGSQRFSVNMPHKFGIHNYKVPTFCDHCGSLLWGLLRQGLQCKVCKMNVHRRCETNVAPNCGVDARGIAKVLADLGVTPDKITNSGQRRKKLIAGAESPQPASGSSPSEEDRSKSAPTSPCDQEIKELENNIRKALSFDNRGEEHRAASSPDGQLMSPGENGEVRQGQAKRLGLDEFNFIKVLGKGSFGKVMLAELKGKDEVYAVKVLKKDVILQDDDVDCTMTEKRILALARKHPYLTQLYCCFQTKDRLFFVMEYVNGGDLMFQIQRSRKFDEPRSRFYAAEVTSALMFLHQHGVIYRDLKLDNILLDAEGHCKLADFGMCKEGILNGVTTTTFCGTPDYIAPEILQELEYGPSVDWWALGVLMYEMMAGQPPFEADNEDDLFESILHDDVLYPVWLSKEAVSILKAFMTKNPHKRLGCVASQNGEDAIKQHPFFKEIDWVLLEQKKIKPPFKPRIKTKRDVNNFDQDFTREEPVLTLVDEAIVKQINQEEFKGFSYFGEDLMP
Description: as §2
Human recombinant PKC […] is obtained from Oxford Biomedical Research and is used under the assay conditions as described under Section A.1 above.
as §1

PKC-theta = biological target: T5, PKC-theta (Homo sapiens, UniProt Q04759); assay: Protein Kinase C assay (fluorescence polarization), PKC-theta; format: biochemical
T5 construct: purchased Upstate Biotechnologies, Temecula, CA 14-444
Description: as §2
Human recombinant PKC θ is used under the assay conditions as described above.
as §1

T2 sequence (P05771 whole entry): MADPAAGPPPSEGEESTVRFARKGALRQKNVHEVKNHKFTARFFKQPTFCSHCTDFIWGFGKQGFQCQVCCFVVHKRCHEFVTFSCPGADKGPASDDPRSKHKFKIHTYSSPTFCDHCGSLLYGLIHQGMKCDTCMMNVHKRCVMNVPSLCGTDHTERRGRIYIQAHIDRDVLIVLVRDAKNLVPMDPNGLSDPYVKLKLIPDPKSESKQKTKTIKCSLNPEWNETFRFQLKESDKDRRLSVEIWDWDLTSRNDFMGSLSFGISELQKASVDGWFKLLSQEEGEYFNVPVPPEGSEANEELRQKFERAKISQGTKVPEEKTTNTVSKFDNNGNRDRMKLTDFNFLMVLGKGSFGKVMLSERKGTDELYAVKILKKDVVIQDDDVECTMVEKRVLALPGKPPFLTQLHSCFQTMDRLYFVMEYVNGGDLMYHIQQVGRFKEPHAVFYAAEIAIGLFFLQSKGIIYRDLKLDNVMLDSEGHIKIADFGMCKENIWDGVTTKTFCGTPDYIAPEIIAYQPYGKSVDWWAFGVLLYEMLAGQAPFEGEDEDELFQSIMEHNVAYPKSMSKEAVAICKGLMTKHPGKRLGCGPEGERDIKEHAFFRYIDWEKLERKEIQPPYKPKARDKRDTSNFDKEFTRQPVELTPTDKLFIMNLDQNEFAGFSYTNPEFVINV
T3 sequence (Q05655 whole entry): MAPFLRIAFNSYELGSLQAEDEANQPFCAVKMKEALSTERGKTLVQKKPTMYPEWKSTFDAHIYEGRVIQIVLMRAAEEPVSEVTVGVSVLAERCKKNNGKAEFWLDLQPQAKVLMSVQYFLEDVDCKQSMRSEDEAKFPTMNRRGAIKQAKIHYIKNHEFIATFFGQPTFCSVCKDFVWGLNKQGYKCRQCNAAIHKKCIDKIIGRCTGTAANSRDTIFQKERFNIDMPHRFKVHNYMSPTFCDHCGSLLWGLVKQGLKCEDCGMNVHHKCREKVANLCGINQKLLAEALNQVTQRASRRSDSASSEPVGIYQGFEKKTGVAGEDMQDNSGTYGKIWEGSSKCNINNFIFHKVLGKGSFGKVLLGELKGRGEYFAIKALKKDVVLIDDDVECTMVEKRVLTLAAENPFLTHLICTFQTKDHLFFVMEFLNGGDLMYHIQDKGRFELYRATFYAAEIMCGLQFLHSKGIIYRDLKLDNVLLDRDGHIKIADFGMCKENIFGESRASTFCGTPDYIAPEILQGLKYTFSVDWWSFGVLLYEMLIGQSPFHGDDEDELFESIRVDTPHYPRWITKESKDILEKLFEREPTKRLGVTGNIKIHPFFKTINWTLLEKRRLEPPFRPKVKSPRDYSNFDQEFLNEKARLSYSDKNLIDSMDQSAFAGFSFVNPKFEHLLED
T5 sequence (Q04759 whole entry): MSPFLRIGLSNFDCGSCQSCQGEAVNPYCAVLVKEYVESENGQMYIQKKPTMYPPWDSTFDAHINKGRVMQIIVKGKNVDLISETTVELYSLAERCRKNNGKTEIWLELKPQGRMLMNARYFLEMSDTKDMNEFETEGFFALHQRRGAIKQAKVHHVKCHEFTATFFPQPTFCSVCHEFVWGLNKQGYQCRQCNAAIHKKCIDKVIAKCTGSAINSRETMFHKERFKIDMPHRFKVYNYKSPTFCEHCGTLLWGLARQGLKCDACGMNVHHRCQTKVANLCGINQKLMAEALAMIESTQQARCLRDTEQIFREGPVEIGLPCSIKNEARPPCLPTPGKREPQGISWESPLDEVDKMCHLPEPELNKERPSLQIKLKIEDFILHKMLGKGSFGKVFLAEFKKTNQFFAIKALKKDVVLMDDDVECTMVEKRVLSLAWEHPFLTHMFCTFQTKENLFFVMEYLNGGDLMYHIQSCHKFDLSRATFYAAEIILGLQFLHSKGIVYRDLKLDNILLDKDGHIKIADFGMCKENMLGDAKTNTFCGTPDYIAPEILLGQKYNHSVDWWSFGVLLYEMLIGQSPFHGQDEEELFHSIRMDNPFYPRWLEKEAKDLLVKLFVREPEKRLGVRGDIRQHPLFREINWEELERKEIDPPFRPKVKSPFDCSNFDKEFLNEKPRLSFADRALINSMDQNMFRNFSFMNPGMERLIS

IC50 (Human primary T cell; T-cell) [nM]	IC50 (PKC-alpha) [nM]	IC50 (PKC-beta) [nM]	IC50 (PKC-delta) [nM]	IC50 (PKC-epsilon) [nM]	IC50 (PKC-theta) [nM]	IC50 (Human primary T cell) [nM]	SMILES
< 250	< 250	< 250	< 250	< 250	< 250	–	CN1C(C)(C)CC(CNc2nc(Nc3ccc4c(c3)-n3nnnc3CO4)ncc2F)C1(C)C (stereo not drawn) [Compound 2-2, N2-(4H-benzo[b]tetrazolo[1,5-d][1,4]oxazin-8-yl)-5-fluoro-N4-((1,2,2,5,5-pentamethylpyrrolidin-3-yl)methyl)pyrimidine-2,4-diamine]
–	< 250	< 250	< 250	< 250	< 250	< 250	CC1C[C@@H](CNc2nc(Nc3ccc4c(c3)-n3nnnc3C(C)(C)O4)ncc2F)C(C)(C)N1 (stereo partly drawn) [Compound 2-7, N2-(4,4-dimethyl-4H-benzo[b]tetrazolo[1,5-d][1,4]oxazin-8-yl)-5-fluoro-N4-(((3S)-2,2,5-trimethylpyrrolidin-3-yl)methyl)pyrimidine-2,4-diamine]
–	< 250	250 to 500	< 250	< 250	< 250	250 to 500	CC1C[C@H](CNc2nc(Nc3ccc4c(c3)-n3nnnc3C(C)(C)O4)ncc2F)C(C)(C)N1 (stereo partly drawn) [Compound 2-8, N2-(4,4-dimethyl-4H-benzo[b]tetrazolo[1,5-d][1,4]oxazin-8-yl)-5-fluoro-N4-(((3R)-2,2,5-trimethylpyrrolidin-3-yl)methyl)pyrimidine-2,4-diamine]
